Here are results for three molecules from ChEMBL document CHEMBL6096630, “Enhancing therapeutic efficacy in homologous recombination-proficient pancreatic cancer via the combination of PARP1-PROTAC and a BRD4 inhibitor” (Bioorg Med Chem, 2024).

Calls of active or inactive are those of the source. The rule behind the calls is not given here. Some results are limits rather than exact numbers.

Series [1] deals with PANC-1. Nature of the series: Induction of apoptosis in human PANC-1 cells assessed as late apoptotic cells at 2 uM incubated for 48 hrs by Annexin V-FITC/PI staining based flow cytometry (reference value: 3.87 %). It is filed as functional. Background: In flow cytometry, cells or beads pass a laser one at a time.
A short description of series [2]: Toxicity in BALB/c mouse xenografted with human PANC-1 cells assessed as pathological changes in kidney at 40 mg/kg, ip for 4 weeks administered for 5 days consecutively and 2 days without treatment on every week in presence of JQ1 by H and E staining based analysis. Format: organism-based. To be noted: in vivo, 672 h. (Xenograft models place foreign cells or tissue in a host animal.)

Series [3] in a line: Toxicity in BALB/c mouse xenografted with human PANC-1 cells assessed as pathological changes in liver at 40 mg/kg, ip for 4 weeks administered for 5 days consecutively and 2 days without treatment on every week by H and E staining based analysis. It is filed as organism-based. The following applies: in vivo, 672 h.
Series [4] is described as follows: Toxicity in BALB/c mouse xenografted with human PANC-1 cells assessed as body weight loss at 40 mg/kg, ip for 4 weeks administered for 5 days consecutively and 2 days without treatment on every week in presence of JQ1. Format: organism-based. To be noted: in vivo, 672 h.
For series [5], the system named is PANC-1. In words: Induction of cell cycle arrest in human PANC-1 cells assessed as accumulation at S phase at 2.5 uM incubated for 24 hrs by PI staining based flow cytometry (reference value: 38.94 %). It is filed as functional.
For series [6], the system named is PANC-1. In words: Induction of apoptosis in human PANC-1 cells assessed as necrotic cells at 2 uM incubated for 48 hrs in presence of JQ1 by Annexin V-FITC/PI staining based flow cytometry (reference value: 3.09 %). Format: functional.
A short description of series [7]: Toxicity in BALB/c mouse xenografted with human PANC-1 cells assessed as animal mortality at 40 mg/kg, ip for 4 weeks administered for 5 days consecutively and 2 days without treatment on every week in presence of JQ1. It is filed as organism-based. The following applies: in vivo, 672 h.
Series [8] concerns PANC-1. Nature of the series: Antiproliferative activity against human PANC-1 cells expressing wild-type BRCA assessed as inhibition of cell survival incubated for 5 days by CCK8 assay. Format: functional, cell-based. To be noted: PANC-1, 120 h. (Tetrazolium assays rely on reduction of a dye to a coloured formazan, in cell work by metabolically active cells.)
The subject of series [9] is BXPC-3. In words: Antiproliferative activity against human BXPC-3 cells expressing wild-type BRCA assessed as inhibition of cell survival incubated for 5 days by CCK8 assay. It is filed as functional, cell-based. The following applies: BXPC-3, 120 h.
Series [10] concerns PANC-1. In words: Induction of apoptosis in human PANC-1 cells assessed as viable cells at 2 uM incubated for 48 hrs by Annexin V-FITC/PI staining based flow cytometry (reference value: 91.64 %). It is filed as functional. To be noted: read-out: Activity.
The test system of series [11] is PANC-1. Nature of the series: Induction of apoptosis in human PANC-1 cells assessed as early apoptotic cells at 0.6 uM incubated for 48 hrs by Annexin V-FITC/PI staining based flow cytometry (reference value: 1.41 %). Format: functional.
For series [12], the system named is PANC-1. Nature of the series: Induction of cell cycle arrest in human PANC-1 cells assessed as accumulation at G0/G1 phase at 2 uM incubated for 24 hrs in presence of JQ1 by PI staining based flow cytometry relative to control. It is filed as functional.
The test system of series [13] is CAPAN-1. Nature of the series: Antiproliferative activity against human CAPAN-1 cells expressing BRCA-/- assessed as inhibition of cell survival incubated for 5 days by CCK8 assay. To be noted: CAPAN-1, 120 h. Format: functional, cell-based.
The subject of series [14] is PANC-1. In words: Antitumor activity against human PANC-1 cells xenografted in BALB/c mouse assessed as reduction in tumor growth at 40 mg/kg, ip for 4 weeks administered for 5 days consecutively and 2 days without treatment on every week in presence of JQ1. It is filed as functional, organism-based.
Series [15] has as its system PANC-1. Nature of the series: Induction of apoptosis in human PANC-1 cells assessed as necrotic cells at 1.2 uM incubated for 48 hrs by Annexin V-FITC/PI staining based flow cytometry (reference value: 3.09 %). It is filed as functional.
Series [16] is described as follows: Toxicity in BALB/c mouse xenografted with human PANC-1 cells assessed as pathological changes in spleen at 40 mg/kg, ip for 4 weeks administered for 5 days consecutively and 2 days without treatment on every week in presence of JQ1 by H and E staining based analysis. Format: organism-based. To be noted: in vivo, 672 h.
Series [17] deals with PANC-1. Nature of the series: Induction of cell cycle arrest in human PANC-1 cells assessed as accumulation at G2 phase at 5 uM incubated for 24 hrs by PI staining based flow cytometry (reference value: 9.36 %). Format: functional.
Series [18] has as its system PANC-1. Nature of the series: Induction of apoptosis in human PANC-1 cells assessed as viable cells at 10 uM incubated for 48 hrs by Annexin V-FITC/PI staining based flow cytometry (reference value: 91.64 %). The following applies: read-out: Activity. Format: functional.
Series [19] relates to PANC-1. Nature of the series: Induction of apoptosis in human PANC-1 cells assessed as early apoptotic cells at 1.2 uM incubated for 48 hrs by Annexin V-FITC/PI staining based flow cytometry (reference value: 1.41 %). Format: functional.
The nature of series [20]: Toxicity in BALB/c mouse xenografted with human PANC-1 cells assessed as pathological changes in liver at 40 mg/kg, ip for 4 weeks administered for 5 days consecutively and 2 days without treatment on every week in presence of JQ1 by H and E staining based analysis. Format: organism-based. To be noted: in vivo, 672 h.
In series [21] the test system is PANC-1. Nature of the series: Induction of apoptosis in human PANC-1 cells assessed as late apoptotic cells at 2 uM incubated for 48 hrs in presence of JQ1 by Annexin V-FITC/PI staining based flow cytometry (reference value: 3.87 %). Format: functional.
Series [22] has as its system PANC-1. In words: Induction of cell cycle arrest in human PANC-1 cells assessed as accumulation at G2 phase at 10 uM incubated for 24 hrs by PI staining based flow cytometry (reference value: 9.36 %). It is filed as functional.
In series [23] the test system is PANC-1. In words: Induction of apoptosis in human PANC-1 cells assessed as necrotic cells at 2 uM incubated for 48 hrs by Annexin V-FITC/PI staining based flow cytometry (reference value: 3.09 %). It is filed as functional.
Series [24] relates to PANC-1. Nature of the series: Induction of cell cycle arrest in human PANC-1 cells assessed as accumulation at S phase at 2 uM incubated for 24 hrs by PI staining based flow cytometry (reference value: 38.94 %). It is filed as functional.
The subject of series [25] is PANC-1. Nature of the series: Induction of apoptosis in human PANC-1 cells assessed as late apoptotic cells at 2.5 uM incubated for 48 hrs by Annexin V-FITC/PI staining based flow cytometry (reference value: 3.87 %). Format: functional.
Series [26] deals with PANC-1. In words: Induction of cell cycle arrest in human PANC-1 cells assessed as accumulation at G2 phase at 2 uM incubated for 24 hrs by PI staining based flow cytometry (reference value: 9.36 %). Format: functional.
The subject of series [27] is PANC-1. In words: Induction of apoptosis in human PANC-1 cells assessed as late apoptotic cells at 5 uM incubated for 48 hrs by Annexin V-FITC/PI staining based flow cytometry (reference value: 3.87 %). Format: functional.
The nature of series [28]: Toxicity in BALB/c mouse xenografted with human PANC-1 cells assessed as animal morbidity at 40 mg/kg, ip for 4 weeks administered for 5 days consecutively and 2 days without treatment on every week. It is filed as organism-based. The following applies: in vivo, 672 h.
Series [29] concerns PANC-1. Nature of the series: Antitumor activity against human PANC-1 cells xenografted in BALB/c mouse assessed as inhibition of tumor volume at 40 mg/kg, ip for 4 weeks administered for 5 days consecutively and 2 days without treatment on every week in presence of JQ1. Format: functional, organism-based.
Series [30] has as its system PANC-1. In words: Induction of apoptosis in human PANC-1 cells assessed as early apoptotic cells at 2 uM incubated for 48 hrs by Annexin V-FITC/PI staining based flow cytometry (reference value: 1.41 %). It is filed as functional.
In series [31] the test system is PANC-1. Nature of the series: Induction of cell cycle arrest in human PANC-1 cells assessed as accumulation at G1 phase at 2 uM incubated for 24 hrs by PI staining based flow cytometry (reference value: 51.70 %). It is filed as functional.

For the molecule `O=C(c1cc(Cc2n[nH]c(=O)c3ccccc23)ccc1F)N1CCN(C(=O)C2CC2)CC1` [OLAPARIB], the Activity in series [1] is 4.61%; in series [2] it was “Non-toxic”; in [3] it was “Non-toxic”; in [4], “Toxic”; in series [5] it was 41.49%; in series [6], 4.77%. For the same molecule, the Activity entry in series [7] is “Non-toxic”; in series [11] it was 2.25%; in series [12], 12.43%; in [15], 4.05%; in [16], “Non-toxic”; in series [17] it was 15.24%. In addition, the Activity in series [19] is 2.88%; in [20], “Non-toxic”; in series [21] it was 21.52%; in series [22], 19.74%; in [23], 2.23%; in series [24], 39.4%. Also, the Activity is given as 4.53% in series [25]; 14.61% in series [26]; 4.7% in series [27]; “Non-toxic” in series [28]; 3.48% in series [30]; 45.99% in [31]. Also, the IC50 in [8], in series [9] and in [13] was less than 10 µM throughout. Besides, the viability at 2 µM in series [10] stood at 89.7%. The outcome in series [14] was Active. Besides, the viability at 10 µM in series [18] was determined as 87.3%. Moreover, in [29], the inhibition entry is “Active”.
For the molecule `Cc1sc2c(c1C)C(c1ccc(Cl)cc1)=N[C@@H](CC(=O)OC(C)(C)C)c1nnc(C)n1-2`, the Activity was found to be 14.01% in series [1]; 6.51% in series [23]; 28.44% in series [24]; 12.12% in series [26]; 6.1% in series [30]; 59.44% in series [31]. The IC50 in series [8], in series [9] and in [13] was less than 10 µM in each case. Moreover, in series [10], the viability at 2 µM amounted to 74.4%.
Turning to `O=C1CCC(N2C(=O)c3cccc(NC(=O)CNCCCCCCCCCCC(=O)N4CCN(C(=O)c5cc(Cc6n[nH]c(=O)c7ccccc67)ccc5F)CC4)c3C2=O)C(=O)N1` (configuration not stated), the Activity in [1] is on record as 5.84%; in series [2] it was “Non-toxic”; in [3], “Non-toxic”; in [4], “Non-toxic”; in series [5], 43.26%; in [6] it was 5%. Moreover, the Activity result in series [7] is listed as “Non-toxic”; in series [11], 3.9%; in [12], 50.25%; in [15], 2.74%; in series [16] it was “Non-toxic”; in [17], 13.63%. The Activity in series [19] was 3.8%; in series [20], “Non-toxic”; in [21], 21.9%; in series [22], 15.94%; in series [23] it was 3.54%; in series [24] it was 41.71%. For the same molecule, the Activity in series [25] was 4.42%; in [26], 14.63%; in series [27] it was 4.37%; in series [28] it was “Non-toxic”; in series [30], 4.35%; in series [31] it was 43.66%. For the same molecule, the IC50 in [8], in [9] and in [13] was less than 10 µM each time. Further, in series [10], the viability at 2 µM stood at 86.3%. Also, the result in series [14] was Active. Moreover, in series [18], the viability at 10 µM came to 86.3%. In [29], the inhibition entry is “Active”.
